Source: article PMC3583800, “Identification of active Plasmodium falciparum calpain to establish screening system for Pf-calpain-based drug development” (Malaria Journal, 2013)

Target: T1, rPfcal-IIa (Pf-calpain catalytic subdomain IIa) (Plasmodium falciparum, UniProt E5LAD0)
T1 construct: also baculovirus/High Five for the mutation study; monomeric proposed
T1 sequence (E5LAD0 822-1216): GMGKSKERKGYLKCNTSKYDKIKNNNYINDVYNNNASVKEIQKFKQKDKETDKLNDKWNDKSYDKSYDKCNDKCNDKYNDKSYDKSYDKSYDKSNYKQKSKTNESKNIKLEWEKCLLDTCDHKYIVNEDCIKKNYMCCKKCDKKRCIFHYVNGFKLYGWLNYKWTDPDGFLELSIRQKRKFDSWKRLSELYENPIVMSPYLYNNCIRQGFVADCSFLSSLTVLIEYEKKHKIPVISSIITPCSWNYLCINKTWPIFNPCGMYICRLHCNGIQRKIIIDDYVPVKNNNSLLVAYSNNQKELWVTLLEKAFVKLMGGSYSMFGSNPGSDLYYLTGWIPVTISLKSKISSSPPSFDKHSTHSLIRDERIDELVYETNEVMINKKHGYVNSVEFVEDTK
Assay: fluorogenic Suc-LLVY-AMC assay and gelatin zymography
Type: biochemical
Conditions: 100 μM inhibitor pre-incubated 1 h at 37°C; 20 μM Suc-LLVY-AMC, 100 mM Tris-HCl pH 7.5, 1 mM DTT

Compound: CC(C)C[C@H](NC(=O)[C@@H]1O[C@H]1C(=O)O)C(=O)NCCCCNC(=N)N [E-64]
- inhibition at 100 μM: enzymatic activity of rPfcal-IIa protein was significantly inhibited by ALLN and E-64
